Measurements taken from patent US20020102688A1, “Methods and products for the synthesis of oligosaccharide structures on glycoproteins, glycolipids, or as free molecules, and for the isolation of cloned genetic sequences that determine these structures” (The Regents of the University of Michigan, priority 1990, published 2002).
Read-outs that look alike come from different tables or passages of the source. Blank lines part the entries; values can stand above or below the molecule they belong to.

How the values were obtained:
[1] = tested on: nucleotide pyrophosphatase activity; experiment: Nucleotide pyrophosphatase activity in mock fucosyltransferase assays; type: biochemical; details: 5 mM in standard assay cocktail
Description: ATP (5 mM) was therefore included in all assays to inhibit nucleotide pyrophosphatase activity. […] Each enzyme source was incubated for 1 to 4 h at 37° C. in 20 μl of standard assay cocktail, but in the absence of phenyl-β-D-galactoside. After the reactions were terminated, an aliquot of each was spotted on Whatman No. 3MM, fractionated by descending paper chromatography for 20 h in solvent B, and radioactivity was determined as described above. Authentic GDP-[^14C]fucose, [^14C]fucose-1-phosphate, and L-[^14C]fucose standards were chromatographed in parallel. This system separates GDP-fucose, fucose-1-phosphate, and fucose. It therefore allows quantitation of the amount of GDP-[^14C]fucose remaining at the end of the incubation, and thus provides an estimate of pyrophosphatase activity. Under the standard assay conditions, more than 97% of the GDP-[^14C]fucose initially present in each mock reaction remained unhydrolyzed and available for transglycosylation.

[2] = target: T1, recombinant human (α1,2)fucosyltransferase (Homo sapiens, UniProt P19526); experiment: Apparent Michaelis constants of recombinant (α1,2)fucosyltransferase expressed in COS-1 cells; type: biochemical
T1 construct: expressed in transfected cells; host or cells: COS-1 cells, transient DEAE-dextran transfection, cell extracts
T1 sequence (P19526 1-365): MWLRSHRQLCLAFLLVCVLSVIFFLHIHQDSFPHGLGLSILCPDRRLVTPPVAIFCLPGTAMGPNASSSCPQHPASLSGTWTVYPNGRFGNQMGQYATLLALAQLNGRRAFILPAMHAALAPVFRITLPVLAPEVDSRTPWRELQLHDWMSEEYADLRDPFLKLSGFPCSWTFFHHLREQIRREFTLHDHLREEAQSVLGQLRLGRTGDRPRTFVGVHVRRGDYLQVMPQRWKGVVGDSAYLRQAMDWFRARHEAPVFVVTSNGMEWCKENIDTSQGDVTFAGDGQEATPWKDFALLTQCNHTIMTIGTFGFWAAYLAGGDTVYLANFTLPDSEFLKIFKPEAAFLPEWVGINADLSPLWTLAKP
Description: (§1) Fucosyltransferase assays were performed by a modification of the procedure reported by Chester et al. (Chester et al, Eur. J. Biochem., 69: 583-593, 1976). The standard assay contained GDP-[^14]fucose (3 μM) phenyl-β-D-galactoside (25 mM), ATP (5 mm) and the enzyme solution (1-10 μl) in 20 μl of 25 mM sodium phosphate buffer, pH 6.1. Based upon preliminary assays, amounts of added enzyme activities were adjusted to ensure that reactions were linear throughout the period of incubation (4 h for fractionated serum, 2 h for each of the other enzyme preparations). Under these conditions, less than 15% of the substrate was consumed during the incubation period. […] The final pH value of each reaction was determined with a micro pH probe. […] The concentration of GDP-fucose in this stock solution was calculated from the UV absorbance at 254 nm of an aliquot diluted in water. […] The supernatant contained virtually 100% of the radiolabelled product; this was collected, and an aliquot was used for separation and quantitation of the fucosylated product using the hydrophobic interaction chromatography method described below. […] This background acceptor “activity” was always less than 3% of the radioactivity incorporated into the phenyl-β-D-galactoside acceptor. […] Intercepts were calculated by the least squares estimation method. […]

(α1,2)fucosyltransferase = experiment: (α1,2)Fucosyltransferase assay, substrate and effector tests; type: biochemical
Description: as §1

[3] = tested on: monoclonal anti-H antibody; experiment: Hapten inhibition of anti-H antibody binding to mH1-12 cells (indirect immunofluorescence); design: species or system mouse; details: antibody preincubated with hapten, 20 mM
Description: Immunofluoroscence was performed on cells plated on 8-well tissue culture chamber slides (Lab-Tek). Cells were plated at a density of 5×10^4/well 24 h prior to analysis. Anti-H and anti-A primary antibodies were diluted in PBS containing bovine serum albumin at 2 mg/ml, to a final concentration of 10 μg/ml. Cell-bound primary antibodies were detected with FITC-conjugated goat anti-mouse IgM, diluted to 40 μg/ml in PBS containing 2 mg/ml bovine serum albumin.
Hapten Inhibition—Plated cells were washed twice with PBS, and were incubated for 30 min at 4° C. with 100 μl of diluted anti-H antibody, or with 100 μl of diluted antibody containing different oligosaccharide haptens, each at a concentration of 20 mM. The chambers were then washed twice, and 100 μl of FITC-conjugated goat anti-mouse IgM was added. After 30 min at 4° C., the chambers were washed three times with PBS, and the cells were fixed at room temperature for 10 min in 3.7% formaldehyde in PBS. The cells were washed twice with PBS, the chambers were removed, and the slide was mounted in PBS containing 25% glycerol. Cells were examined by fluorescence microscopy using a Zeiss Axiophot photomicroscope equipped with fluorescence epiillumination.

α-fucosidase activity = experiment: α-Fucosidase activity in enzyme preparations; type: biochemical; details: 10 mM; fractionated human serum and mouse intestinal mucosa extracts
Description: Each enzyme preparation was also tested for α-fucosidase activity that could hydrolyze the [^14C]fucosylphenyl-β-D-galactoside product and prevent accurate determination of (α1,2)fucosyltransferase activity. Enzyme preparations were incubated with purified [^14C]fucosylphenyl-β-D-galactoside (7000 cpm, 10 pmol) in fucosyltransferase assay buffer, but in the absence of added GDP-[^14C]fucose or phenyl-β-D-galactoside. These reactions were incubated at 37° C. for various times, and were then fractionated by the Sep-Pak method to determine the amount of remaining [^14C]fucosylphenyl-β-D-galactoside. Fractionated human serum and mouse intestinal mucosa extracts each contained significant α-fucosidase activity. […] Therefore 10 mM L-fucose was included when assaying these enzyme sources. Significant amounts of α-fucosidase activity were not detected in any of the other cell extracts; product hydrolysis never exceeded 1%/h under the standard assay conditions.

[4] = target: T2, blood group H (α1,2)fucosyltransferase (Homo sapiens, UniProt P19526); experiment: Apparent Km for the blood group H (α1,2)fucosyltransferase; type: biochemical; details: determined by the inventor; read-out: apparent Km for phenyl-β-D-galactoside
T2 sequence (P19526 1-365): T1 sequence (P19526 1-365)
Description: Serum was prepared from freshly drawn blood obtained from a non-Secretor individual. The blood was clotted in a glass tube at 37° C. for 1 h and was immediately fractionated by ammonium sulfate precipitation exactly as described. The 20%-40% ammonium sulfate fraction was dialyzed against 2 changes of 4 liters of water (8 h each) at 4° C. Assay of (α1,2)fucosyltransferase was done immediately. Alternatively, the fractionated serum was aliquoted and stored at −20° C. until use.
Fucosyltransferase assays were performed by a modification of the procedure reported by Chester et al. (Chester et al, Eur. J. Biochem., 69: 583-593, 1976). […] The final pH value of each reaction was determined with a micro pH probe. […] The concentration of GDP-fucose in this stock solution was calculated from the UV absorbance at 254 nm of an aliquot diluted in water. […] The supernatant contained virtually 100% of the radiolabelled product; this was collected, and an aliquot was used for separation and quantitation of the fucosylated product using the hydrophobic interaction chromatography method described below. […] This background acceptor “activity” was always less than 3% of the radioactivity incorporated into the phenyl-β-D-galactoside acceptor. […] Intercepts were calculated by the least squares estimation method.

[5] = target: T3, (α1,2)fucosyltransferase found in human milk (Se locus) (Homo sapiens, UniProt Q10981); experiment: Apparent Km for the human milk (α1,2)fucosyltransferase; type: biochemical; details: human milk enzyme; read-out: apparent Km for phenyl-β-D-galactoside
T3 sequence (Q10981 29-343 limits assumed): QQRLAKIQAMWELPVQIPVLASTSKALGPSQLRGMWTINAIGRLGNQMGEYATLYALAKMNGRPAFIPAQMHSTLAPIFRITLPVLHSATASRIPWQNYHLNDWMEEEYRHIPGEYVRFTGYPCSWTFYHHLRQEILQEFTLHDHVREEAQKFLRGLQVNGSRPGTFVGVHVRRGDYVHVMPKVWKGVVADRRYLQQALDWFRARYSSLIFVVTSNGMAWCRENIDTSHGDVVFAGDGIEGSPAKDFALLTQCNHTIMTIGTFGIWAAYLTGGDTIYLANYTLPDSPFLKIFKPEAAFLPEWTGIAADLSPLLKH
Description: (α1,2)Fucosyltransferase was isolated from human milk by published procedures. Briefly, 300 ml of milk from a Se-positive donor was defatted by centrifugation and was extensively dialyzed against 20 MM sodium cacodylate, pH 6.0. This was applied to a column (2.6×115 cm) of sulfopropyl-Sephadex equilibrated in 20 mM cacodylate, pH 6.0. The column was then washed with 1 liter of 20 mM cacodylate, pH 6.0, and was eluted with a linear gradient made from 1.5 liter each of 20 mM cacodylate, pH 6.0, and 500 mM NaCl in 20 mM cacodylate, pH 6.0. Fractions (13 ml) were collected and assayed for (α1,2)fucosyltransferase activity using phenyl-β-D-galactoside acceptor as described below. […]
Fucosyltransferase assays were performed by a modification of the procedure reported by Chester et al. (Chester et al, Eur. J. Biochem., 69: 583-593, 1976). […] The final pH value of each reaction was determined with a micro pH probe. […] The concentration of GDP-fucose in this stock solution was calculated from the UV absorbance at 254 nm of an aliquot diluted in water. […] The supernatant contained virtually 100% of the radiolabelled product; this was collected, and an aliquot was used for separation and quantitation of the fucosylated product using the hydrophobic interaction chromatography method described below. […] Intercepts were calculated by the least squares estimation method.

[6] = tested on: Griffonia simplicifolia isolectin I B4 (GS I-B4); experiment: Hapten inhibition of FITC-GS I-B4 staining of COS-1 cells transfected with pCDM7-αGT; type: binding; details: 50 mM raffinose
Description: COS-1 cells transfected with plasmid DNAs were harvested 48-72-hr after transfection. These were stained with either fluorescein isothiocyanate-conjugated GS I-B4 at 10 μg per ml in staining media or with fluorescein isothiocyanate-conjugated GS I-B4 that had been previously incubated with 50 mM raffinose. Cells were then subjected to analysis by fluorescence-activated cell sorting as described above.

F9 teratocarcinoma cells = experiment: (α1-3)GT specific activity in retinoic acid-differentiated F9 cells; type: cell-based, mouse

SMILES: Nc1ncnc2c1ncn2[C@@H]1O[C@H](COP(=O)(O)OP(=O)(O)OP(=O)(O)O)[C@@H](O)[C@H]1O [ATP]
inhibition of nucleotide pyrophosphatase activity [1]: Effective inhibition

SMILES: OC[C@H]1O[C@H](OC[C@H]2O[C@H](O[C@]3(CO)O[C@H](CO)[C@@H](O)[C@@H]3O)[C@H](O)[C@@H](O)[C@@H]2O)[C@H](O)[C@@H](O)[C@H]1O [raffinose]
inhibition of GS I-B4 staining by hapten [6]: inhibited

SMILES: CC1=C(/C=C/C(C)=C/C=C/C(C)=C/C(=O)O)C(C)(C)CCC1 [retinoic acid]
specific activity of (α1-3)GT versus untreated F9 cells (F9 teratocarcinoma cells): approximately 4 fold

Further lines, with some results ahead:

Km ([2]; COS-1 cells transfected with pH3.4, phenyl-β-D-galactoside 25 mM, read-out: apparent Km for GDP-fucose): 17.5 µM
SMILES: C[C@@H]1O[C@H](OP(=O)(O)OP(=O)(O)OC[C@H]2O[C@@H](n3cnc4c(=O)[nH]c(N)nc43)[C@H](O)[C@@H]2O)[C@@H](O)[C@H](O)[C@@H]1O [GDP-fucose]

activity as a substrate for (α1,2)fucosyltransferase ((α1,2)fucosyltransferase): inactive
SMILES: C[C@@H]1O[C@H](OP(=O)(O)OP(=O)(O)OC[C@H]2O[C@@H](n3cnc4c(=O)[nH]c(N)nc43)[C@H](O)[C@@H]2O)[C@@H](O)[C@H](O)[C@@H]1O [GDP-β-L-fucose]

inhibition of α-fucosidase activity (α-fucosidase activity): effectively inhibited
effect on (α1,2)fucosyltransferase activity ((α1,2)fucosyltransferase; 10 mM, reconstruction experiments with cell extracts): does not alter the activity
SMILES: C[C@H](O)[C@@H](O)[C@@H](O)[C@H](O)C=O [L-fucose]
inhibition of anti-H antibody binding to mH1-12 cells by hapten [3]: does not inhibit

Km ([2]; COS-1 cells transfected with pCDM7-α(1,2)FT, GDP-[14C]fucose 3 μM, read-out: apparent Km for phenyl-β-D-galactoside): 2400 µM
Km [4]: 3100 µM
Km [5]: 15100 µM
SMILES: OC[C@H]1O[C@@H](Oc2ccccc2)[C@H](O)[C@@H](O)[C@H]1O [phenyl-β-D-galactoside]
